Assay results reported in patent publication US6852888B2, “Carboxylic acid derivatives” (Syngenta Crop Protection, Inc., priority 1998, dated 2005).

Columns and labels:
Aphis craccivora = assay: Action against Aphis craccivora; assay type: in vivo; conditions: 400 ppm spray on infested pea seedlings, 20° C., evaluated 3 and 6 days later, read-out: percentage reduction in population (% activity)
Description: Action against Aphis craccivora
Pea seedlings are infested with Aphis craccivora, subsequently sprayed with a spray mixture comprising 400 ppm of the test compound and incubated at 20° C. The evaluation is carried out 3 and 6 days later. The percentage reduction in population (% activity) is determined by comparing the number of dead aphids on the treated plants with that on the untreated plants.

Myzus persicae = assay: Systemic action against Myzus persicae; assay type: in vivo; conditions: pea seedlings with roots in spray mixture of 400 ppm, 20° C., evaluated 3 and 6 days later
Description: Systemic Action against Myzus persicae
Pea seedlings are infested with Myzus persicae, and then placed with their roots in a spray mixture comprising 400 ppm of the test compound and incubated at 20° C. The evaluation is carried out 3 and 6 days later. The percentage reduction in population (% activity) is determined by comparing the number of dead aphids on the treated plants with that on the untreated plants.

Tetranychus urticae = assay: Action against Tetranychus urticae; assay type: in vivo; conditions: 400 ppm spray on young bean plants, mixed population, 6 days at 25° C.
Description: Action against Tetranychus urticae
Young bean plants are populated with a mixed population of Tetranychus urticae and sprayed one day later with an aqueous emulsion spray mixture comprising 400 ppm of the test compound. The plants are then incubated for 6 days at 25° C. and subsequently evaluated. The percentage reduction in population (% activity) is determined by comparing the number of dead eggs, larvae and adults on the treated plants with that on the untreated plants.

Cc1cc(OC(F)(F)C(F)Cl)ccc1NC(=O)CCCC=C(F)F (stereo not shown) [Compound 1.1, 6,6-Difluorohex-5-enoic acid [4-(2-chloro-1,1,2-trifluoroethoxy)-2-methylphenyl]amide]
inhibition at 400 ppm (Aphis craccivora): > 80%
melting point: 59 to 60 °C

O=C(CCCC=C(F)F)Nc1ccc(OC(F)(F)C(F)F)cc1 [Compound 1.3]
percentage reduction in population (% activity) (Myzus persicae): more than 80%

O=C(CCCC=C(F)F)Nc1cccc(OC(F)(F)C(F)F)c1 [Compound 1.17]
percentage reduction in population (% activity) (Tetranychus urticae): more than 80%
